Test results as given in article PMC5259734, “Identification of Key Residues for Urate Specific Transport in Human Glucose Transporter 9 (hSLC2A9)” (Scientific Reports, 2017).

What was measured:
Format in all cases: cell-based
[1] = target: T1, hSLC2A9b (human glucose transporter 9) (Homo sapiens, UniProt Q9NRM0); assay: […] fructose uptake in Xenopus oocytes
T1 construct: gene SLC2A9; hSLC2A9b isoform (shorter N-terminus), WT
T1 sequence (Q9NRM0 1-511 isoform Q9NRM0-2 limits assumed): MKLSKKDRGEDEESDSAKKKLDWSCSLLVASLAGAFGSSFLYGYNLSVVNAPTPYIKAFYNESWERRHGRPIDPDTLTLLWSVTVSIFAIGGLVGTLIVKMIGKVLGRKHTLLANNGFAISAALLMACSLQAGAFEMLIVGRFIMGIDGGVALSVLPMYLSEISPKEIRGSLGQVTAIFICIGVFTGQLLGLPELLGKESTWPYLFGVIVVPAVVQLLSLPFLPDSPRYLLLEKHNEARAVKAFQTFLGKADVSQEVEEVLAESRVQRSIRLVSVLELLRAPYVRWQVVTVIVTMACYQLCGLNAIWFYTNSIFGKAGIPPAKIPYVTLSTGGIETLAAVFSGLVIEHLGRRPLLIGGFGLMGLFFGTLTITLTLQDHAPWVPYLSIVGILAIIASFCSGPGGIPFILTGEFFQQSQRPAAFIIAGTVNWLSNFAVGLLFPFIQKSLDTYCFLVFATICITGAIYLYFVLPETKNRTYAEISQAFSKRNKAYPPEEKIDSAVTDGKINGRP

[2] = target: T1, hSLC2A9b (human glucose transporter 9); assay: TEVC inhibition of urate-induced current and […] urate flux in Xenopus oocytes
[3] = target: T1, hSLC2A9b (human glucose transporter 9); assay: […] urate flux kinetics and TEVC in Xenopus oocytes

OC[C@H]1OC(O)(CO)[C@@H](O)[C@@H]1O (stereo partly drawn) [fructose]
14C fructose uptake in Xenopus oocytes [1]: all mutants transported fructose similarly as WT hSLC2A9b

O=S(=O)(O)c1cc[c]([Hg][Cl])cc1 [pCMBS]
IC50 [2]: 52.5 µM

O=c1[nH]c(=O)c2[nH]c(=O)[nH]c2[nH]1 [urate]
14C urate flux kinetics and TEVC in Xenopus oocytes [3]: both WT hSLC2A9b and its cysteine mutants exhibited Michaelis-Menten type kinetics for urate transport
